What was measured:
CYP24 = target: T1, CYP24 (Homo sapiens, UniProt Q07973); experiment: CYP24 enzyme assay (V79-CYP24 cells, 3H-1α,25(OH)2D3 substrate); format: cell-based; conditions: substrate 20 nM, 2 hours, read-out: IC50 in the inhibition of CYP24
T1 construct: expressed in transfected cells; host or cells: V79-CYP24 cells (V79 = Chinese hamster lung fibroblasts, own knowledge; kept under hygromycin selection)
T1 sequence (Q07973 36-514): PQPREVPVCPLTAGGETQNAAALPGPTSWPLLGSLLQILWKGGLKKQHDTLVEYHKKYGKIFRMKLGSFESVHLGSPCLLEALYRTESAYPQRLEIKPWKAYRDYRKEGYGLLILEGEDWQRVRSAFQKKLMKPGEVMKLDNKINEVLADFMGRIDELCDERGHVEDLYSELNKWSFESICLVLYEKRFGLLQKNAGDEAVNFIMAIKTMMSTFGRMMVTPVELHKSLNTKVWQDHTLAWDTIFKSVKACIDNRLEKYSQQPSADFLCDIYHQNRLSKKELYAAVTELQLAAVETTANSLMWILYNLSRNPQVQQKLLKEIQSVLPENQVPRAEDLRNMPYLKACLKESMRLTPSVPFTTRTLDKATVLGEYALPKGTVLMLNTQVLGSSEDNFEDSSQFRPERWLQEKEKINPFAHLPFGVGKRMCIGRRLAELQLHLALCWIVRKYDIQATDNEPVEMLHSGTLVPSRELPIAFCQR
Description: (i) Material and Reagents:
Substrates (1 mM) reconstituted in isopropanol
1. Preparation of Cell Suspension • On the day of the assay, washed the monolayer of V79-CYP24 cells once with 1×PBS buffer and then trypsinized for 5 min at room temperature (approx. 22° C.). Added 1×PBS. Collected cells into tube, centrifuged cells (500×g, 5 min) and resuspended in DMEM+1% BSA media. Counted cells and adjusted density to 2 million/1 mL.
2. Cell Plating • Added 80 μl of cell suspension to appropriately labeled wells of a 96-well plate. Incubated plate for 45 minutes at 37° C. in a humidified atmosphere containing 5% CO2.
3. Compound Addition • Added 10 μl of inhibitor (10^−6 to 10^−10 M) and then after 35-40 min added 10 μl of substrate [^3H-1β]-1α,25(OH)2D3 (20 nM) for 2 hours at 37° C. in a humidified atmosphere containing 5% CO2. Both inhibitor and substrate were prepared in DMEM with 1% BSA media.
4. Lipid Extraction and Counting • Added 250 μl of methanol to stop the reaction and mixed. Added […] of dichloromethane, covered block and vortexed. Added […] of dichloromethane again, added […] of saturated KCl and vortexed. Centrifuged at 3000 rpm for 30 min. Triplicate 100 μl aliquots of aqueous fraction were mixed with 200 μl of scintillation fluid and the radioactivity was measured using a scintillation counter. All values were normalized for background. (iii) Results: • 1. […] (iv) Reference: 1. PCT Patent Application Serial No. PCT/CA03/00620

CYP24 mRNA = experiment: CYP24 transcriptional activation assay in U-937 cells (real time PCR); format: cell-based, human; conditions: six hours, normalized to GAPDH, 100 nM calcitriol set to 100%
Description: 1α,25(OH)2D3 1 mM reconstituted in isopropanol
• Sodium pyruvate • Non-essential amino acids • HEPES • 10% fetal bovine serum Phorbol 12-myristate 13-acetate (PMA) 24-well plate Isopropanol TRIzol® reagent (Invitrogen) Chloroform Ethanol Diethylpyrocarbonate treated dH2O Thermoscript™ RT-PCR System kit (Invitrogen) Human CYP24 TaqMan® Probe (Applied Biosystems Inc) Human GAPDH TaqMan® Probe (Applied Biosystems Inc) TaqMan® Universal Master Mix Probe (Applied Biosystems Inc) (ii) Procedure:
1. Cell Culture, Stimulation and Plating • Cultured U-937 cells in 4+RPMI media to a level of ≈80% confluence. Pelleted cells by centrifugation and resuspended to a concentration of 5×10^5 cells per 1 ml media. Treated U-937 cells with a final concentration of PMA of 20 ng/ml. To each well, of a 24-well plate, added 1 ml of cell suspension and incubated overnight at 37° C., in a humidified atmosphere containing 5% CO2, for adherence of cells to the wells.
2. Cell Treatment and TRIzol® Addition • Changed the media with 1 ml of fresh 4+RPMI media. Added 1 μl of the working solutions of 1, 10, and 100 μM of the compound being tested, in triplicate. Added 1 μl of isopropanol as a control, in triplicate. Incubated the cells for six hours at 37° C., in a humidified atmosphere containing 5% CO2, aspirated off the media and then added 1 ml of TRIzol® reagent. Transferred TRIzol® with cell lysate to a 1.7 ml microcentrifuge tube and stored at −80° C.
3. […] Determined the concentration of RNA using a spectrophotometer to measure the optical density of each sample, at a wavelength of 260 nm. […]
4. CYP24/GAPDH Real Time PCR • Determined the amount of CYP24 and GAPDH mRNA present in each sample using commercial TaqMan® probes, from Applied Biosystems Inc. (Foster City, Calif.). Detected both genes in the same 20 μl reaction, using an ABI PRISM 96-well optical reaction plate and cycle 50 times using an ABI Prism 7000 Sequence Detection System® (ABI). […]

C=C1/C(=C\C=C2/CCC[C@]3(C)C([C@H](C)C/C=C/C(=NOC)C(C)(C)C)=CC[C@@H]23)C[C@@H](O)C[C@@H]1O [(20R)-I(e)]
IC50 (CYP24): 20.7 nM
CYP24 mRNA induction, activity as % of that for calcitriol at 100 nM (CYP24 mRNA): 65%

From patent US8906888B2, “Low-calcemic 16,23-diene 25-oxime analogs of 1α,25-dihydroxy vitamin D3” (Cytochroma Inc., priority 2005, dated 2014)
